Measured values reported in patent US20150216937A1, “METHODS FOR TREATING NEOPLASIA” (Altor BioScience Corporation, priority 2012, published 2015).
Read-outs that look alike come from different tables or passages of the source.

Columns and labels:
[1] = tested on: UMUC-14 cells; test: WST-1 cell proliferation assay, UMUC-14; type: cell-based, human; details: WST-1 reagent, 24 hours, read-out: IC50, inhibition of UMUC-14 cell growth
Experimental: (§1) The sensitivity of the human bladder tumor cell lines to gemcitabine and cisplatin was further assessed using a cell proliferation assay. UMUC-14 and KU7P cells were plated in media containing various amounts of gemcitabine and cisplatin and cell proliferation was determined using the WST-1 reagent 24 hours later.

[2] = tested on: subcutaneous MB49G tumors; test: Gemcitabine resistant subcutaneous MB49G tumor model; type: in vivo, mice; details: ALT-801 0.8 mg/kg (sub-optimal dose), gemcitabine 40 mg/kg
Description: As potent suppressors of various immune cell functions, MDSCs are potential therapeutic targets for anticancer treatment. For example, gemcitabine, a widely-used chemotherapeutic, can selectively eliminate MDSCs in tumor-bearing animals and enhance tumor-suppressive immune activity (Suzuki et al., Clin Cancer Res, 11: 6713-6721, 2005).

[3] = tested on: HLA-A2+ p53+ UMUC-14 cells; test: In vitro 24-hour incubation of UMUC-14 cells with chemotherapeutic agents; type: cell-based, human; details: G0/G1 cell cycle arrest
Experimental: The anti-tumor efficacy of multi-dose administration of […] (ALT-801), alone and in combination with gemcitabine and cisplatin, was evaluated on primary tumor growth in athymic nude mice bearing human bladder UMUC-14 and KU7P cells. Treatment with a gemcitabine and cisplatin regimen is the standard-of-care for patients with metastatic bladder cancer. To assess the in vitro effects of these chemotherapeutic agents on human bladder cancer cells, HLA-A2^+ p53^+ UMUC-14 cells were treated with gemcitabine and cisplatin, alone and in combination.

[4] = tested on: Gr1+CD11b+ MDSCs; test: Spleen Gr1+CD11b+ MDSCs after gemcitabine; type: in vivo, C57BL/6 mice; details: 40 mg/kg i.v., three days after; untreated tumor-bearing 4.29 (±1.32), normal 1.19 (±0.25)
Experimental: Gemcitabine is one of the drugs in the standard combination chemotherapy for muscle invasive bladder cancer. It has been reported that gemcitabine reduces myeloid-derived suppressor cells (MDSCs) in tumor-bearing mice. In this report, we studied the effect of gemcitabine on MDSCs induced by MB49luc cells in mice. MB49luc tumor-bearing mice were treated intravenously with gemcitabine at 40 mg/kg. Three days after gemcitabine treatment, splenocytes were isolated and the percentage of Gr1^+CD11b^+ MDSCs was determined by flow cytometry. The MDSCs accounted for 1.19 (±0.25) percent of the splenocytes in normal control mice without MB49luc tumors. These MDSCs increased to 4.29 (±1.32) percent of splenocytes in MB49luc tumor-bearing mice.

[5] = tested on: KU7P cells; test: WST-1 cell proliferation assay, KU7P; type: cell-based, human; details: WST-1 reagent, 24 hours, read-out: IC50, inhibition of KU7P cell growth
Experimental: as §1

[6] = tested on: subcutaneous KU7P human bladder tumors; test: Subcutaneous KU7P xenograft, monotherapy; type: in vivo, nude mice; details: Gem 40 mg/kg, MART-1scTCR/IL-2 2.19 mg/kg, ALT-801 1.6 mg/kg
[7] = tested on: MB49luc cells; test: Effect of IFN-γ on MB49luc cells, Annexin V flow cytometry; type: cell-based, mouse; details: 1 or 10 ng/mL
Experimental: In the second part of this study, the effect of IFN-γ on MB49luc cell growth was investigated. MB49luc cells (2×10^5/well) were cultured in RPMI-10 with IFN-γ at 1 or 10 ng/mL. The IFN-γ-treated MB49luc cells were harvested and stained with FITC-labeled Annexin V. The Annexin V positive apoptotic MB49luc cells were determined by flow cytometry.

Q: Which IC50 ([1]; Homo sapiens, UMUC14) does the source give for `Nc1ccn([C@@H]2O[C@H](CO)[C@@H](O)C2(F)F)c(=O)n1` [gemcitabine] here?
A: Its IC50 is 2.03 mM.

Q: What about the “tumor growth / progression compared to PBS treated mice” value [2] of the same compound?
A: Its value is “did not significant differ”.

Q: What about the UMUC-14 cell proliferation [3] of the same compound?
A: The UMUC-14 cell proliferation was “dose dependent decrease”.

Q: And the “spleen Gr1+CD11b+ MDSCs as percent of splenocytes” value [4]?
A: The value was 1.83 (±0.92) percent.

Q: And the IC50 ([5]; Homo sapiens)?
A: Its IC50 is 50 nM.

Q: What about the “growth of subcutaneous KU7P tumors compared to PBS treated mice” value [6] of the same compound?
A: Its value is “statistically significant decrease”.

Q: What does the source list for `N.N.[Cl][Pt][Cl]` [cisplatin]?
A: IC50 [1]: 0.0092 mM; UMUC-14 cell proliferation [3]: dose dependent decrease; IC50 [5]: 1400 nM

Q: “IFN-γ: cytokine added to MB49luc cell cultures” was tested. Which “cytotoxicity against MB49luc cells (Annexin V positive apoptotic cells)” value [7] did it give?
A: The value was “does not directly result in detectable cytotoxicity”.
